From US8044036B2 (priority 2005, dated 2011)

What was measured:
Pyricularia oryzae = type: cell-based; conditions: application rate 3 ppm; 5 days incubation in PDB; 100% = no fungal growth
Septoria tritici = Septoria tritici test (in vitro)/microtitre plates; type: cell-based; conditions: application rate 0.3 ppm; 5 days incubation in PDB; 100% = no fungal growth

Row | SMILES | Efficacy in % found (Pyricularia oryzae) [%] | Efficacy in % found (Septoria tritici) [%]
1 | OC(Cc1ccccc1Cl)(Cn1nc[nH]c1=S)C1(Cl)CC1 (racemic) [prothioconazole, 2-[(2RS)-2-(1-chlorocyclopropyl)-3-(2-chlorophenyl)-2-hydroxy-propyl]-2H-1,2,4-triazole-3(4H)thione] | 23 | 21
2 | C=CCNC(=O)c1c([Si](C)(C)C)sc(C)c1C [silthiofam, N-alkyl-4,5-dimethyl-2-(trimethylsilyl)thiophene-3-carboxamide] | 29 | 10
